We go through 6 compounds from patent publication US20250276972A1, “COMPOUNDS AS CASEIN KINASE INHIBITORS” (GRITSCIENCE BIOPHARMACEUTICALS CO.,LTD., priority 2020, published 2025).

One data set deals with wild type CK1δ (Homo sapiens, UniProt P48730). In words: CK1δ kinase assay (Kinase-Glo). Format: biochemical. The following applies: 10 μM ATP, 2 nM wild type CK1δ, 85 min at 25° C. The procedure: The reaction mixture was incubated for 85 min at 25° C.; detection was carried out as described for the Kinase-Glo Assay (Promega). Luminescent output was measured on the Perkin Elmer Envision plate reader (PerkinElmer, Waltham, MA).
Background: Kinase-Glo measures the ATP left after a reaction by luminescence.

The next data set concerns the target T1, CK1δ (Homo sapiens, UniProt P48730).
T1 construct: endogenous in cells; host or cells: Bmal1-dLuc or Per2-dLuc U2OS cells
The data set can be described thus: CK1δ inhibition (EC50); Bmal1-dLuc or Per2-dLuc U2OS luminescence rhythm period assay. Type of data set: cell-based. Conditions: Table 3. How it is done: Bmall-dLuc or Per2-dLuc U2OS cells were suspended in the culture medium (DMEM supplemented with 10% fetal bovine serum, 0.29 mg/mL L-glutamine, 100 units/mL penicillin, and […] streptomycin) and plated onto 96-well white solid-bottom plates at 200 μL (10,000 cells) per well. After 2 days, 100 μL of the explant medium (DMEM supplemented with 2% B27, 10 mM HEPES, 0.38 mg/mL sodium bicarbonate, 0.29 mg/mL L-glutamine, 100 units/mL penicillin, […], 0.1 mg/mL gentamicin, and 1 mM luciferin, pH 7.2) was dispensed to each well, followed by the application of 1 μL of a compound of the present application (dissolved in DMSO; final concentration was 0.7% in DMSO). The plate was covered with an optically clear film and set to microplate reader (Infinite M200, Tecan).

Another data set in a line: in vitro. The following applies: human, Caco-2, pH 7.4. The procedure:
Cells were cultivated for 14-18 days in a cell culture incubator at 37° C., 5% CO2, 95% relative humidity. Cell culture medium was replaced every other day, beginning no later than 24 hours after initial plating.
10 mM stock solutions of test compounds were prepared in DMSO. The stock solutions of positive controls were prepared in DMSO at the concentration of 10 mM.
125 μL of 5 μM working solution of control compound and test compounds were added to the Transwell insert (apical compartment), and transfer 50 μL sample (DO sample) immediately from the apical compartment to a new 96-well plate. […] 285 μL of 5 μM working solution of control compound and test compounds were to the receiver plate wells (basolateral compartment), and transfer 50 μL sample (DO sample) immediately from the basolateral compartment to a new 96-well plate. Fill the wells in the Transwell insert (apical compartment) with 75 μL of HBSS (10 mM HEPES, pH 7.4). […] Samples were Vortexed for 5 minutes and then centrifuged at 3,220 g for 40 minutes. […] 100 μL of the Lucifer yellow solution was added to each Transwell insert (apical compartment), followed by filling the wells in the receiver plate (basolateral compartment) with 300 μL of HBSS (10 mM HEPES, pH 7.4). The plates were Incubated at 37° C. for 30 mins. 80 μL samples were removed directly from the apical and basolateral wells (using the basolateral access holes) and transferred to wells of new 96 wells plates. The Lucifer Yellow fluorescence (to monitor monolayer integrity) signal was measured in a fluorescence plate reader at 485 nm excitation and 530 nm emission.
The apparent permeability coefficient (Papp), in units of centimeter per second, can be calculated for Caco-2 drug transport assays using the following equation: […]

Data set [1] is described as follows: Intrinsic clearance in liver microsomes (human). Format: in vitro ADME. Conditions: Human liver microsomes 0.5 mg/mL, 2 μM compound, 37° C. The procedure:
(§1) • 1. The master solution was prepared according to Table 5.
(§2) • 2. Three separated experiments were performed as follows. a) With NADPH: 10 μL of 20 mg/mL liver microsomes and 40 μL of 10 mM NADPH were added to the incubations. The final concentrations of microsomes and NADPH were 0.5 mg/mL and 1 mM, respectively. b) Without NADPH: 10 μL of 20 mg/mL liver microsomes and 40 μL of ultra-pure H2O were added to the incubations. The final concentration of microsomes was 0.5 mg/mL. c) Heat-inactivated microsomes without NADPH: 10 μL of 20 mg/mL heat-inactivated liver microsomes and 40 μL of ultra-pure H2O were added to the incubations. The final concentration of microsomes was 0.5 mg/mL. • 3. The reaction was started with the addition of 4 μL of 200 μM test compound solution or control compound solution at the final concentration of 2 μM and carried out at 37° C. • 4. Aliquots of 50 μL were taken from the reaction solution at 0, 15, 30, 45 and 60 min. […] Samples were centrifuged at 3, 220 g for 40 minutes. […] Data Analysis
(§3) Peak areas were determined from extracted ion chromatograms. The slope value, k, was determined by linear regression of the natural logarithm of the remaining percentage of the parent drug vs. incubation time curve.
(§4) The in vitro half-life (in vitro t1/2) was determined from the slope value:
(§5) Conversion of the in vitro t1/2 (min) into the in vitro intrinsic clearance (in vitro CLint, in μL/min/mg protein) was done using the following equation (mean of duplicate determinations): […]

Data set [2] in a line: Intrinsic clearance in liver microsomes (mouse). Type of data set: in vitro ADME. Conditions: Mouse liver microsomes 0.5 mg/mL, 2 μM compound, 37° C. How it is done: as §1, §2, §3, §4, §5
Background: Microsomes from liver hold many membrane-bound enzymes, among them those of drug oxidation.

The mark [3] stands for this setting: read-out: in vitro CLint (μL/min/mg protein).

T1 sequence (P48730 whole entry): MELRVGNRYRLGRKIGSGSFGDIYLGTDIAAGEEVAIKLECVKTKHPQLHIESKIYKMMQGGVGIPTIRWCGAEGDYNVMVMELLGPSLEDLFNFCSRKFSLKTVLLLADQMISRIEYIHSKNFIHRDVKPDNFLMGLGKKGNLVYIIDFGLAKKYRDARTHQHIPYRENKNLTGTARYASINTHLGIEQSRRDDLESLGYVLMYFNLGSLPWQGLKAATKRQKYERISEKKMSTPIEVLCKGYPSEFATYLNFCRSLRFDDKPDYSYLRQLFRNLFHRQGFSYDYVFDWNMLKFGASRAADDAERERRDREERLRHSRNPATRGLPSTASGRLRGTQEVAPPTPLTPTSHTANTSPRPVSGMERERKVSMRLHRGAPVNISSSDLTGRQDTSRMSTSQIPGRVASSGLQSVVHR
Sequence of wild type CK1δ (P48730 whole entry): as above

Take `COc1ccc(/C=C/C(=O)Nc2cc(-c3c(-c4ccc(F)cc4)nn4c3CN(C(C)=O)CC4)ccn2)c(OC)c1` [Compound I-69, (E)-N-(4-(5-acetyl-2-(4-fluorophonyl)-4,5,6,7-tetrahydropyrazolo[1,5-a]pyrazin-3-yl)pyridin-2-yl)-3-(2,4-dimethoxyphenyl) acrylamide]: on wild type CK1δ, the IC50 (as a rule, the concentration that inhibits the measured activity by half) amounted to 37.4 nM. For the same compound, at CK1δ, the EC50 (usually the concentration that produces a half-maximal response) is 300 nM.

`Nc1cc(-c2nn3c(c2-c2ccc(F)cc2)C(=O)NCC3)ccn1` [Compound I-64, 2-(2-aminopyridin-4-yl)-3-(4-fluorophenyl)-6,7-dihydropyrazolo[1,5-a]pyrazin-4(5H)-one] gave an IC50 against wild type CK1δ of 334 nM. Moreover, on CK1δ, the response was half-maximal at 700 nM (EC50).

On wild type CK1δ, `CS(=O)(=O)N1CCn2nc(-c3ccc(F)cc3)c(-c3ccnc(N)n3)c2C1` [Compound I-21, 4-(2-(4-fluorophenyl)-5-(methylsulfonyl)-4,5,6,7-tetrahydropyrazolo[1,5-a]pyrazin-3-yl)pyrimidin-2-amine.] displayed an IC50 of 364 nM. Also, the EC50 at CK1δ was found to be 400 nM.

As for `Cc1cc(-c2c(-c3ccc(F)cc3)nn3c2CN(C(=O)CCN(C)C)CC3)ccn1` [Compound I-6, 3-(dimethylamino)-1-(2-(4-fluorophenyl)-3-(2-methylpyridin-4-yl)-6,7-dihydropyrazolo[1,5-a]pyrazin-5(4H)-yl)propan-1-one], at wild type CK1δ, the midpoint of inhibition, the IC50, lay at 1030 nM. At CK1δ, this compound displayed an EC50 of 7400 nM.

Compound `CC(=O)Nc1cc(-c2c(-c3ccc(F)cc3)nn3c2CN(CCN(C)C)CC3)ccn1` [Compound I-50, N-(4-(5-(2-(dimethylamino)ethyl)-2-(4-fluorophenyl)-4,5,6,7-tetrahydropyrazolo [1,5-a]pyrazin-3-yl)pyridin-2-yl)acetamide] yielded a concentration for a half-maximal effect (EC50) on CK1δ of 200 nM. In addition, in “in vitro”, the Papp A→B – broadly, the apparent permeability from the apical to the basolateral side of a cell layer – at 2 h, 5 μM stood at 0.88 ×10⁻⁶ cm/s; the Papp B→A (in general, how fast a substance crosses the layer from the basolateral side) at 2 h, 5 μM came out at 22.4 ×10⁻⁶ cm/s; the efflux ratio (commonly the permeability from basolateral to apical divided by that in the opposite direction, in the common usage) at 2 h, 5 μM was 25.4. Moreover, in data set [1] (setting [3]), the microsomal CLint at 2 μM was 13.5 µL/min/mg. Besides, the half-life at 2 μM in data set [1] (read-out: in vitro t1/2) amounted to 102 min. Moreover, in data set [2] (setting [3]), the microsomal CLint at 2 μM came to 35.1 µL/min/mg. Also, the half-life at 2 μM in data set [2] (read-out: in vitro t1/2) was 39.5 min.

`Cc1cc(-c2c(-c3ccc(F)cc3)nn3c2CN(C(=O)C(F)(F)F)CC3)ccn1` [Compound I-16, 2,2,2-trifluoro-1-(2-(4-fluorophenyl)-3-(2-methylpyridin-4-yl)-6,7-dihydropyrazolo [1,5-a]pyrazin-5(4H)-yl)ethan-1-one] had an IC50 at wild type CK1δ of 1700 nM. This compound also returned an EC50 on CK1δ of 5200 nM.
